Consider nine compounds from US9499550B2 (BRISTOL-MYERS SQUIBB COMPANY, priority 2012, dated 2016).

As a reminder, the EC50 is the concentration at which the effect is half-maximal.

Assay [1] deals with HCV genotype 1a (H77 strain) replicon in HUH-7 cells. In words: HCV replicon luciferase reporter assay, genotype 1a. The class given is cell-based. As to conditions: Hepatitis C virus, Huh-7, 72 h, HCV genotype 1a replicon luciferase, 3 days incubation. In short, it runs like this:
(§1)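 Replicon inhibition for both genotypes was measured as Renilla luciferase signal (EnduRen, 7.5 μM final, 2 h) after 3-day, 37° C exposure of replicon-bearing HUH-7 cells in 4% FCS DMEM, 0.5% DMSO. The 1b construct carries S1179I; the 1a H77 construct carries P1496L and S2204I. Twenty-point, 3-fold dilutions were fitted four-parametrically for EC50, and CC50 was taken from multiplexed Cell Titer-Blue.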
(In general: In antiviral work, replicon cells carry a viral genome segment that copies itself.)

The subject of assay [2] is HCV genotype 1b (Con1) replicon in HUH-7 cells. Nature of the assay: HCV replicon luciferase reporter assay, genotype 1b. The class given is cell-based. The conditions noted are these: Hepatitis C virus, Huh-7, 72 h, HCV genotype 1b replicon luciferase, 3 days incubation. In short, it runs like this: as §1

The structures appear in SMILES notation. Like-named read-outs stand apart in the source and are kept apart here.

Regarding `CCCOc1cnc(O[C@@H]2C[C@H]3C(=O)N[C@]4(C(=O)NS(=O)(=O)C5(C)CC5)C[C@H]4/C=C\CC[C@H](C)C[C@@H](C)[C@H](NC(=O)OC(C)(C)C)C(=O)N3C2)c2ccccc12` [Compound 5078, tert-butyl ((2R,6S,7R,9S,13aS,14aR,16aS,Z)-7,9-dimethyl-14a-(((1-methylcyclopropyl)sulfonyl)carbamoyl)-5,16-dioxo-2-((4-propoxyisoquinolin-1-yl)oxy)-1,2,3,5,6,7,8,9,10,11,13a,14,14a,15,16,16a-hexadecahydrocyclopropa[e]pyrrolo[1,2-a][1,4]diazacyclopentadecin-6-yl)carbamate], the EC50 is 28.9 nM in assay [1] (read-out: LE_1a (EC50)); 4.82 to 103 nM in assay [1] (read-out: LE_1a (EC50, range)); 8.73 nM in assay [2] (read-out: LE_1b (EC50)); 4.82 to 103 nM in assay [2] (read-out: LE_1b (EC50, range)).

Consider `CCCOc1cnc(O[C@@H]2C[C@H]3C(=O)N[C@]4(C(=O)NS(=O)(=O)C5(C)CC5)C[C@H]4/C=C\CC[C@@H](C)C[C@@H](C)[C@H](NC(=O)OC(C)(C)C)C(=O)N3C2)c2ccccc12` [Compound 5079, tert-butyl ((2R,6S,7R,9R,13aS,14aR,16aS,Z)-7,9-dimethyl-14a-(((1-methylcyclopropyl)sulfonyl)carbamoyl)-5,16-dioxo-2-((4-propoxyisoquinolin-1-yl)oxy)-1,2,3,5,6,7,8,9,10,11,13a,14,14a,15,16,16a-hexadecahydrocyclopropa[e]pyrrolo[1,2-a][1,4]diazacyclopentadecin-6-yl)carbamate], for which the EC50 is less than 5.46 nM in assay [1] (read-out: LE_1a (EC50, range)) and less than 5.46 nM in assay [2] (read-out: LE_1b (EC50, range)).

Regarding `CCCOc1cnc(O[C@@H]2C[C@H]3C(=O)N[C@]4(C(=O)NS(=O)(=O)C5(C)CC5)C[C@H]4/C=C\CC[C@H](C)C[C@@H](C)[C@H](NC(=O)O[C@@H]4C[C@@H]5C[C@@H]5C4)C(=O)N3C2)c2ccccc12` [Compound 5080, (1R,3r,5S)-bicyclo[3.1.0]hexan-3-yl((2R,6S,7R,9S,13aS,14aR,16aS,Z)-7,9-dimethyl-14a-(((1-methylcyclopropyl)sulfonyl)carbamoyl)-5,16-dioxo-2-((4-propoxyisoquinolin-1-yl)oxy)-1,2,3,5,6,7,8,9,10,11,13a,14,14a,15,16,16a-hexadecahydrocyclopropa[e]pyrrolo[1,2-a][1,4]diazacyclopentadecin-6-yl)carbamate], the EC50 is more than 87.4 nM in assay [1] (read-out: LE_1a (EC50, range)) and 4.82 to 103 nM in assay [2] (read-out: LE_1b (EC50, range)).

As for `CCCOc1cnc(O[C@@H]2C[C@H]3C(=O)N[C@]4(C(=O)NS(=O)(=O)C5(C)CC5)C[C@H]4/C=C\CC[C@@H](C)C[C@@H](C)[C@H](NC(=O)O[C@@H]4C[C@@H]5C[C@@H]5C4)C(=O)N3C2)c2ccccc12` [Compound 5081, (1R,3r,5S)-bicyclo[3.1.0]hexan-3-yl((2R,6S,7R,9R,13aS,14aR,16aS,Z)-7,9-dimethyl-14a-(((1-methylcyclopropyl)sulfonyl)carbamoyl)-5,16-dioxo-2-((4-propoxyisoquinolin-1-yl)oxy)-1,2,3,5,6,7,8,9,10,11,13a,14,14a,15,16,16a-hexadecahydrocyclopropa[e]pyrrolo[1,2-a][1,4]diazacyclopentadecin-6-yl)carbamate], the EC50 in assay [1] (read-out: LE_1a (EC50, range)) was 4.82 to 103 nM; in assay [2] (read-out: LE_1b (EC50, range)) it was less than 5.46 nM.

Take `CCCOc1cnc(O[C@@H]2C[C@H]3C(=O)N[C@]4(C(=O)NS(=O)(=O)C5(C)CC5)C[C@H]4/C=C\CC[C@H](C)C[C@@H](C)[C@H](NC(=O)OCC4(C)CC4)C(=O)N3C2)c2ccccc12` [Compound 5082, (1-methylcyclopropyl)methyl ((2R,6S,7R,9S,13aS,14aR,16aS,Z)-7,9-dimethyl-14a-(((1-methylcyclopropyl)sulfonyl)carbamoyl)-5,16-dioxo-2-((4-propoxyisoquinolin-1-yl)oxy)-1,2,3,5,6,7,8,9,10,11,13a,14,14a,15,16,16a-hexadecahydrocyclopropa[e]pyrrolo[1,2-a][1,4]diazacyclopentadecin-6-yl)carbamate]: the EC50 in assay [1] (read-out: LE_1a (EC50)) is 198 nM; in assay [1] (read-out: LE_1a (EC50, range)) it was more than 87.4 nM; in assay [2] (read-out: LE_1b (EC50)) it was 45.5 nM; in assay [2] (read-out: LE_1b (EC50, range)), 4.82 to 103 nM.

Consider `CCCOc1cnc(O[C@@H]2C[C@H]3C(=O)N[C@]4(C(=O)NS(=O)(=O)C5(C)CC5)C[C@H]4/C=C\CC[C@@H](C)C[C@@H](C)[C@H](NC(=O)OCC4(C)CC4)C(=O)N3C2)c2ccccc12` [Compound 5083, (1-methylcyclopropyl)methyl ((2R,6S,7R,9R,13aS,14aR,16aS,Z)-7,9-dimethyl-14a-(((1-methylcyclopropyl)sulfonyl)carbamoyl)-5,16-dioxo-2-((4-propoxyisoquinolin-1-yl)oxy)-1,2,3,5,6,7,8,9,10,11,13a,14,14a,15,16,16a-hexadecahydrocyclopropa[e]pyrrolo[1,2-a][1,4]diazacyclopentadecin-6-yl)carbamate], for which the EC50 in assay [1] (read-out: LE_1a (EC50, range)) was less than 5.46 nM; in assay [2] (read-out: LE_1b (EC50, range)), less than 5.46 nM.

On to `CCCOc1cnc(O[C@@H]2C[C@H]3C(=O)N[C@]4(C(=O)NS(=O)(=O)C5(C)CC5)C[C@H]4/C=C\CC[C@H](C)C[C@@H](C)[C@H](NC(=O)O[C@H](C)C(F)(F)F)C(=O)N3C2)c2ccccc12` [Compound 5084, (R)-1,1,1-trifluoropropan-2-yl ((2R,6S,7R,9S,13aS,14aR,16aS,Z)-7,9-dimethyl-14a-(((1-methylcyclopropyl)sulfonyl)carbamoyl)-5,16-dioxo-2-((4-propoxyisoquinolin-1-yl)oxy)-1,2,3,5,6,7,8,9,10,11,13a,14,14a,15,16,16a-hexadecahydrocyclopropa[e]pyrrolo[1,2-a][1,4]diazacyclopentadecin-6-yl)carbamate], for which the EC50 is 520 nM in assay [1] (read-out: LE_1a (EC50)); more than 87.4 nM in assay [1] (read-out: LE_1a (EC50, range)); 131 nM in assay [2] (read-out: LE_1b (EC50)); more than 87.4 nM in assay [2] (read-out: LE_1b (EC50, range)).

Regarding `CCCOc1cnc(O[C@@H]2C[C@H]3C(=O)N[C@]4(C(=O)NS(=O)(=O)C5(C)CC5)C[C@H]4/C=C\CC[C@@H](C)C[C@@H](C)[C@H](NC(=O)O[C@H](C)C(F)(F)F)C(=O)N3C2)c2ccccc12` [Compound 5085, (R)-1,1,1-trifluoropropan-2-yl ((2R,6S,7R,9R,13aS,14aR,16aS,Z)-7,9-dimethyl-14a-(((1-methylcyclopropyl)sulfonyl)carbamoyl)-5,16-dioxo-2-((4-propoxyisoquinolin-1-yl)oxy)-1,2,3,5,6,7,8,9,10,11,13a,14,14a,15,16,16a-hexadecahydrocyclopropa[e]pyrrolo[1,2-a][1,4]diazacyclopentadecin-6-yl)carbamate], the EC50 in assay [1] (read-out: LE_1a (EC50, range)) lay within 4.82 to 103 nM; in assay [2] (read-out: LE_1b (EC50, range)), 4.82 to 103 nM.

Take `CCCOc1cnc(O[C@@H]2C[C@H]3C(=O)N[C@]4(C(=O)NS(=O)(=O)C5(C)CC5)C[C@H]4/C=C\CC[C@H](C)C[C@@H](C)[C@H](NC(=O)NC(C)(C)C(F)(F)F)C(=O)N3C2)c2ccccc12` [Compound 5086, (2R,6S,7R,9S,13aS,14aR,16aS,Z)-7,9-dimethyl-N-((1-methylcyclopropyl)sulfonyl)-5,16-dioxo-2-((4-propoxyisoquinolin-1-yl)oxy)-6-(3-(1,1,1-trifluoro-2-methylpropan-2-yl)ureido)-1,2,3,5,6,7,8,9,10,11,13a,14,14a,15,16,16a-hexadecahydrocyclopropa[e]pyrrolo[1,2-a][1,4]diazacyclopentadecine-14a-carboxamide]: the EC50 was 411 nM in assay [1] (read-out: LE_1a (EC50)); more than 87.4 nM in assay [1] (read-out: LE_1a (EC50, range)); 155 nM in assay [2] (read-out: LE_1b (EC50)); more than 87.4 nM in assay [2] (read-out: LE_1b (EC50, range)).
